{
  "source": "paper PMC7506137",
  "about": "“Selective Phosphodiesterase 1 Inhibitor BTTQ Reduces Blood Pressure in Spontaneously Hypertensive and Dahl Salt Sensitive Rats: Role of Peripheral Vasodilation” (Frontiers in Physiology, 2020)",
  "key": {"[1]": {"assay": "Rat PK parameters (IV and oral)", "type": "in vivo"}, "Dahl Salt Sensitive rats": {"tested_on": "Dahl Salt Sensitive rats", "assay": "Rat telemetry, blood pressure and heart rate", "type": "in vivo", "source_text": "(§1) Male Sprague Dawley (Taconic Biosciences) rats, Spontaneous Hypertensive rats (Charles River Laboratories, United States), and Dahl Salt Sensitive rats (Medical College of Wisconsin) were implanted with transmitters (HD S10; Data Science International) for collection of BP and heart rate (HR) data. The transmitters are capable of transmitting a BP signal via a pressure catheter inserted into the abdominal aorta. Initially, a baseline was established and recorded. Each rat was then removed from its recording cage and was dosed by p.o. gavage with vehicle or compound and the animals were then returned to the recording cage. Data sampling for BP and HR was carried out in intervals at selected time points for the duration of the experiment.\n(§2) All data in this manuscript were presented as mean ± SEM with a significance level of p < 0.05, and n represents the number of individual animals. The significance of differences in concentration-response curves in the ear temperature and, myograft study were calculated using t-test, compare to the vehicle group. The EC50 was calculated using GraphPad Prism 8.3 using a 4-parameter logistic non-linear curve fit model. Single-dose rat telemetry data for normal and SHR rats and repeat-dose telemetry data in Dahls salt-sensitive rats were analyzed by two-way repeated measures ANOVA. Treatment group main effects were compared by Tukey’s HSD method. All telemetry data were analyzed with GraphPad Prism 8.3."}, "[2]": {"tested_on": "Spontaneous Hypertensive rats (SHR)", "assay": "Rat telemetry, blood pressure and heart rate", "type": "in vivo", "source_text": "as §1, §2"}, "Sprague Dawley rats [3]": {"tested_on": "Sprague Dawley rats", "assay": "Rat telemetry, blood pressure and heart rate", "type": "in vivo", "source_text": "as §1, §2"}, "Sprague Dawley rats [4]": {"tested_on": "Sprague Dawley rats", "assay": "Rat ear temperature (vasodilation)", "type": "in vivo", "procedure": "Male Sprague Dawley rats at 6 to 7 weeks were dosed orally by p.o. gavage with different doses of BTTQ formulated in 1% hydroxyethlycellulose (Dow Corning, Midland, MI, United States) (w/v), 0.25% polysorbate 80 (Sigma-Aldrich, St. Louis, MO, United States) (v/v), and 0.05% antifoam (v/v; Dow Corning, Midland, MI, United States) in purified water. Following dosing, ear temperature was measured by using a k-type thermocouple probe digital thermometer (Cole Parmer) every hour for 6 h and then at 24 h. Blood samples for plasma exposure measurement were obtained at the same time. Blood was collected via a tail snip directly into a 20-μL EDTA-coated capillary and immediately spotted onto a Whatman DMPK-C DBS card (GE Healthcare Bio-Sciences). Tail snips were performed by removing approximately 1 mm of the tail by using a scalpel. Blood flow was initiated by gentle squeezing of the tail. No analgesia or anesthesia was used during blood collections. A single sample and spot were collected per time point. The DBS cards were allowed to dry for approximately 2 h at room temperature, after which the cards were placed in a zip-top bag, stored, and shipped at ambient temperature.\nas §2"}, "[5]": {"assay": "Fraction unbound in rat plasma", "type": "in vitro ADME", "conditions": "read-out: FU Value (FU Plasma Exp Rat)", "source_text": "Supplement Table_2.xlsx, sheet \"Supplementary table 2\""}, "[6]": {"conditions": "3 mg/kg twice daily oral for 21 days, high salt (4%) diet"}},
  "data": [
    {"smiles": "O=c1c2nnc(C3(C4CC4)CC3)n2c2c(n1CC1CC1)CCCC2", "note": "[BTTQ, 1-[1,1′-bi(cyclopropyl)-1-yl]-5-(cyclopropylmethyl)-6,7,8,9-tetrahydro[1,2,4]triazolo[4,3-A]quinoxaline-4(5H)-one]", "values": [
      {"measurement": "% of dose recovered in urine", "setting": "[1]", "value": 0.4, "unit": "%"},
      {"measurement": "clearance", "setting": "[1]; in vivo, 1 mg/kg, IV 1 mpk, mean ± SD, 3 animals", "value": "3.2 ± 0.6", "unit": "mL/min/kg"},
      {"measurement": "Vd", "setting": "[1]; in vivo, 1 mg/kg, IV 1 mpk, mean ± SD, 3 animals, read-out: IV Vdss", "value": "0.6 ± 0.04", "unit": "L/kg"},
      {"measurement": "half-life", "setting": "[1]; in vivo, 1 mg/kg, IV 1 mpk, mean ± SD, 3 animals, read-out: IV t1/2 (converted)", "value": "2.7 ± 0.5", "unit": "h"},
      {"measurement": "bioavailability", "setting": "[1]; in vivo, IV 1 mpk and oral 10 mpk, mean ± SD, 3 animals", "value": "58 ± 20", "unit": "%"},
      {"measurement": "MAP compared to the vehicle-treated group", "setting": "Dahl Salt Sensitive rats; [6]", "value": "profound reduction"},
      {"measurement": "heart rate", "setting": "Dahl Salt Sensitive rats; [6]", "value": "elevation of heart rate"},
      {"measurement": "lowering of blood pressure compared to the vehicle-treated group", "setting": "Dahl Salt Sensitive rats; Dahl salt-sensitive rats", "value": "~24", "unit": "mmHg"},
      {"measurement": "effect on BP", "setting": "[2]; 0.03 mg/kg twice daily oral", "value": "did not show any effect"},
      {"measurement": "effect on HR", "setting": "[2]; 0.03 mg/kg twice daily oral", "value": "did not show any effect"},
      {"measurement": "MAP", "setting": "[2]; 0.03, 0.1, 0.3, 1, and 3 mg/kg twice daily oral, 24 h telemetry", "value": "dose-dependent decrease"},
      {"measurement": "heart rate", "setting": "[2]; 0.03-3 mg/kg twice daily oral", "value": "dose-dependent increase"},
      {"measurement": "additional blood pressure lowering", "setting": "[2]; BTTQ administered on top of ACE inhibitor", "value": "about 22 mmHg"},
      {"measurement": "lowering of blood pressure compared to the vehicle-treated group", "setting": "[2]; SHR", "value": "~36", "unit": "mmHg"},
      {"measurement": "heart rate", "setting": "Sprague Dawley rats [3]; 1 and 3 mg/kg twice daily oral", "value": "dose-dependent increase"},
      {"measurement": "immediate decrease in MAP compared to the vehicle", "setting": "Sprague Dawley rats [3]; 1 and 3 mg/kg twice daily oral (both groups), within 1 h of the first dose", "value": "about 5 mmHg"},
      {"measurement": "time after second dose at which BP-lowering effect returned to baseline", "setting": "Sprague Dawley rats [3]; high dose group (3 mg/kg twice daily oral)", "value": 7, "unit": "h"},
      {"measurement": "lowering of blood pressure compared to the vehicle-treated group", "setting": "Sprague Dawley rats [3]; normal Sprague Dawley rats", "value": "about 9 mmHg"},
      {"measurement": "increase of ear temperature compared to the vehicle control", "setting": "Sprague Dawley rats [4]; 3 mg/kg single oral dose, within 1 h", "value": 14, "unit": "%"},
      {"measurement": "ear temperature", "setting": "Sprague Dawley rats [4]; 0.1, 0.3, and 1 mg/kg single oral dose", "value": "significant dose-dependent increase"},
      {"measurement": "ED50", "setting": "Sprague Dawley rats [4]; Rattus norvegicus, single oral dose, 1 h time point, four parametric logistic equation, read-out: median effective dose (ED50), ear temperature", "value": 0.14, "unit": "mg/kg"},
      {"measurement": "time at which ear temperature returned to baseline", "setting": "Sprague Dawley rats [4]; all doses, single oral dose", "value": 6, "unit": "h"},
      {"measurement": "time for which the increase in ear temperature stayed significant", "setting": "Sprague Dawley rats [4]; single oral dose", "value": "up to 3 h"},
      {"measurement": "fraction unbound", "setting": "[5]", "value": 0.053}
    ]}
  ]
}
